ChEMBL document CHEMBL1139255, “Structure-activity relationship studies of 5-benzylaminoimidazo[1,2-c]pyrimidine-8-carboxamide derivatives as potent, highly selective ZAP-70 kinase inhibitors” (Bioorg Med Chem, 2009)

Tests used:
[1] = biological target: Tyrosine-protein kinase SYK (Homo sapiens) (UniProt P43405); assay: Inhibition of Syk
[2] = biological target: T1, Tyrosine-protein kinase ZAP-70 (Homo sapiens, UniProt P43403); assay: Inhibition of human ZAP70 (Leu325 to Ala619) expressed in Sf9 cells by coupled spectrophotometric enzyme assay; assay type: cell-based
T1 sequence (P43403 whole entry): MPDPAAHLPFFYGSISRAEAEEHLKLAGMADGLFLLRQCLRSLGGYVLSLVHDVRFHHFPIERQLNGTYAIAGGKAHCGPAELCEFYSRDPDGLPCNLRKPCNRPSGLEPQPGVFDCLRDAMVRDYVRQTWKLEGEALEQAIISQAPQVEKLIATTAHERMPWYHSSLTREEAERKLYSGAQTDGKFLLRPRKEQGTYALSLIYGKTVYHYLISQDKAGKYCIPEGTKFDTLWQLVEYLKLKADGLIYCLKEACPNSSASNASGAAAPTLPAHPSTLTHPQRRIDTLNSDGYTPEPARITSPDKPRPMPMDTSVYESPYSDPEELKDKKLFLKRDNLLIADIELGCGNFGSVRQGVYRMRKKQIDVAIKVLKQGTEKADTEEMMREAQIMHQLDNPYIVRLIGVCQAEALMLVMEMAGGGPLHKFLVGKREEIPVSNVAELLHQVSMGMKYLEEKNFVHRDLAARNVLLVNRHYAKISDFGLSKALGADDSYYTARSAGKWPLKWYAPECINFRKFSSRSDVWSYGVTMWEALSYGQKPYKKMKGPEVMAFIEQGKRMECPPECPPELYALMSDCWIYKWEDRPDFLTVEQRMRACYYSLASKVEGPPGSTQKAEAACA

[3] = biological target: Proto-oncogene tyrosine-protein kinase Src (Homo sapiens, UniProt P12931); assay: Inhibition of Src
Proto-oncogene tyrosine-protein kinase Src, sequence (P12931 2-536 limits assumed): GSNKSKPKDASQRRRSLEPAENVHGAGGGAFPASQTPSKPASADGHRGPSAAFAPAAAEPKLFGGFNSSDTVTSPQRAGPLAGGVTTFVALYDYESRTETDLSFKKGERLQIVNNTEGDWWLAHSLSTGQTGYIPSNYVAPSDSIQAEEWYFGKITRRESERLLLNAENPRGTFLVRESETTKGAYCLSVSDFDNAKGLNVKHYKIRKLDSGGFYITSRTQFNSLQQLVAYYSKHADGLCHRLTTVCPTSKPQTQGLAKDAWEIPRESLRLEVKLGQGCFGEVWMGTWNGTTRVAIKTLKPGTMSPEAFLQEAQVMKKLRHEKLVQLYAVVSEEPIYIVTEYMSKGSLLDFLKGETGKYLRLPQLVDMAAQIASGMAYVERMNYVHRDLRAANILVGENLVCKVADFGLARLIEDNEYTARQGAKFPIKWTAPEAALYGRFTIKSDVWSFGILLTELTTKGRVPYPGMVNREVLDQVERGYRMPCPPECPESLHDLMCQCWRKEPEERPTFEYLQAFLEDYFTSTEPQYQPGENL

[4] = biological target: Tyrosine-protein kinase Lck (Homo sapiens, UniProt P06239); assay: Inhibition of Lck
Tyrosine-protein kinase Lck, sequence (P06239 whole entry): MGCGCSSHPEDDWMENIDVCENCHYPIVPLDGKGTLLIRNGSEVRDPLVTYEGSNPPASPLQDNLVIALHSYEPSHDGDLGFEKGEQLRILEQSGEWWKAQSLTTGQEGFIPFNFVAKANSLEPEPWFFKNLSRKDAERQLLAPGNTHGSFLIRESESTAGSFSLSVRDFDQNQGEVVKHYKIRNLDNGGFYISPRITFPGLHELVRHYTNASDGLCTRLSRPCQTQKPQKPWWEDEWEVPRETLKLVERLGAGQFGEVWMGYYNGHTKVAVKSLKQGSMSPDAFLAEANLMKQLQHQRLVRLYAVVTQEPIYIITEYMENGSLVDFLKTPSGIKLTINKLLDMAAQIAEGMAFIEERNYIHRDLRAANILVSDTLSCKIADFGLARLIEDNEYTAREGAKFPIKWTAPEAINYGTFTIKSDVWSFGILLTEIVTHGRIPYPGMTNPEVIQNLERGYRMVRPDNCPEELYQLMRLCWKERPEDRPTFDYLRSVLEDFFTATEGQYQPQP

[5] = biological target: Protein kinase C beta type (Homo sapiens, UniProt P05771); assay: Inhibition of PKC beta2
Protein kinase C beta type, sequence (P05771 whole entry): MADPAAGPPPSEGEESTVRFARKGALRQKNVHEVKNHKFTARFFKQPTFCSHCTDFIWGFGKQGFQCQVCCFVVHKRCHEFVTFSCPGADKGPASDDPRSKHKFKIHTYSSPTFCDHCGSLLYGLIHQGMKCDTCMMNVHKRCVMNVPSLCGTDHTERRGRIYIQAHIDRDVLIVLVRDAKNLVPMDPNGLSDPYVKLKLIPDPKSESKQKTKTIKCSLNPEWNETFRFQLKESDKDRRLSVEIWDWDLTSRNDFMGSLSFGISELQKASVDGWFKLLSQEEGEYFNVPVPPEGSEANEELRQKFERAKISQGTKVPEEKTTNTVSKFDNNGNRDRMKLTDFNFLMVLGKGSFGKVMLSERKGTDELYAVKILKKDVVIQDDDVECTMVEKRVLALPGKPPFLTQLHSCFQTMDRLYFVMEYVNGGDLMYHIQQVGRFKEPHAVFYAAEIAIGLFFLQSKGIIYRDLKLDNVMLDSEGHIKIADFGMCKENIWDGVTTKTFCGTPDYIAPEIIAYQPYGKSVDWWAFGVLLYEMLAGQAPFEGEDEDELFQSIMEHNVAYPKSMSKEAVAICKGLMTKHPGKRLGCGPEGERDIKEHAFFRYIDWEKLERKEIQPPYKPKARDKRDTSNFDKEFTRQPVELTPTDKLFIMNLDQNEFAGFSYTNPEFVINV

[6] = biological target: Mitogen-activated protein kinase 3 (Homo sapiens, UniProt P27361); assay: Inhibition of ERK1
Mitogen-activated protein kinase 3, sequence (P27361 whole entry): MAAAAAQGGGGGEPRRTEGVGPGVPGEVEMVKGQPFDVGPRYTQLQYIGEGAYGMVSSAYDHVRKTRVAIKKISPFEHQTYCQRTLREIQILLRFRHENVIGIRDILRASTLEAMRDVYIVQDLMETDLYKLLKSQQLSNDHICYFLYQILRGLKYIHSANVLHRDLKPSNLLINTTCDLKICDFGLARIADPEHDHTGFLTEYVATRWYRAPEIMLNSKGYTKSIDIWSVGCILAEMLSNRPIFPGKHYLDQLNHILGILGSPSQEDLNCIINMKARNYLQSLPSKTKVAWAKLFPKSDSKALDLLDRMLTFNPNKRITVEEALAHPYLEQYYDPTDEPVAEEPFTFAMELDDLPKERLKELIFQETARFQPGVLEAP

[7] = biological target: Mitogen-activated protein kinase 14 (Homo sapiens, UniProt Q16539); assay: Inhibition of p38 alpha
Mitogen-activated protein kinase 14, sequence (Q16539 whole entry): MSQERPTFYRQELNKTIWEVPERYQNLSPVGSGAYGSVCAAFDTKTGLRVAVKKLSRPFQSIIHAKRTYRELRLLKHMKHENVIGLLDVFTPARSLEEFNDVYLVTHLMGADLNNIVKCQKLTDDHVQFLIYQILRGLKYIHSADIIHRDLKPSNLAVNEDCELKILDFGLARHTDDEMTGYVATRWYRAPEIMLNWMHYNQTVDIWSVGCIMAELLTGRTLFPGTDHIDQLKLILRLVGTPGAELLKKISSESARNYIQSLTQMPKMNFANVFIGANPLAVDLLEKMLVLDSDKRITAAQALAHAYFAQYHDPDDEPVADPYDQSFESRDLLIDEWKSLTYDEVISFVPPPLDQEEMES

[8] = biological target: T2, Epidermal growth factor receptor (Homo sapiens, UniProt P00533); assay: Inhibition of EGFR at 10 uM
T2 sequence (P00533 whole entry): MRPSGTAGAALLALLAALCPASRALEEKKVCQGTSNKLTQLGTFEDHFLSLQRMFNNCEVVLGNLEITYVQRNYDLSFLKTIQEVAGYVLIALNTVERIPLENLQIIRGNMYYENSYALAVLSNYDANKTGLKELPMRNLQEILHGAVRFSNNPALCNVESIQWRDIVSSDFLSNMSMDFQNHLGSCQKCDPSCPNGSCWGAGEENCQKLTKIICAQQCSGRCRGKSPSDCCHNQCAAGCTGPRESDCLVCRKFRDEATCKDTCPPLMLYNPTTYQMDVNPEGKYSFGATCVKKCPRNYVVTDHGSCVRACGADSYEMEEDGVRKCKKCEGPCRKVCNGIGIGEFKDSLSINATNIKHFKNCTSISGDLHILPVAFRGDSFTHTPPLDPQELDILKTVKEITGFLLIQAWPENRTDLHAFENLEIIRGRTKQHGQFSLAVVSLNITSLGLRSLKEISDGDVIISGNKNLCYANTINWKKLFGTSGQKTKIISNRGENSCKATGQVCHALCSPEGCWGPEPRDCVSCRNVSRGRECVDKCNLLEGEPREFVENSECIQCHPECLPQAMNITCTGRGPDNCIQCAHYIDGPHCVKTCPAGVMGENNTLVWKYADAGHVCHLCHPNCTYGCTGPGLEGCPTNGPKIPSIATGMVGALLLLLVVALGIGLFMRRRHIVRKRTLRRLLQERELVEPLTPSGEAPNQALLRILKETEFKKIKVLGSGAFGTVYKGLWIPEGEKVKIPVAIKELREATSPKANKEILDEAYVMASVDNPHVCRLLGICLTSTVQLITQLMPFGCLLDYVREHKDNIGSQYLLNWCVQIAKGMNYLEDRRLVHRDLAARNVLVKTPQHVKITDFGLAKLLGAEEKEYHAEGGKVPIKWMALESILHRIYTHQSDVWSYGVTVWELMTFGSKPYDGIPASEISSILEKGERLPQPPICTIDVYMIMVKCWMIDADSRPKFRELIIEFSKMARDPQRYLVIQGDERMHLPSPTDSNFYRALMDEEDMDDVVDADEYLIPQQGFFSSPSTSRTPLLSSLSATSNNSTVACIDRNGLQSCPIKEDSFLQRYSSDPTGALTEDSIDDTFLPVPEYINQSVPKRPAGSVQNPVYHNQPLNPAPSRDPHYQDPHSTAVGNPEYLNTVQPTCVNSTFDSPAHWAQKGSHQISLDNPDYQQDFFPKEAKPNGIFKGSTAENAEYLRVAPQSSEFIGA

[9] = biological target: T3, Mitogen-activated protein kinase 8 (Homo sapiens, UniProt P45983); assay: Inhibition of JNK1 at 10 uM
T3 sequence (P45983 whole entry): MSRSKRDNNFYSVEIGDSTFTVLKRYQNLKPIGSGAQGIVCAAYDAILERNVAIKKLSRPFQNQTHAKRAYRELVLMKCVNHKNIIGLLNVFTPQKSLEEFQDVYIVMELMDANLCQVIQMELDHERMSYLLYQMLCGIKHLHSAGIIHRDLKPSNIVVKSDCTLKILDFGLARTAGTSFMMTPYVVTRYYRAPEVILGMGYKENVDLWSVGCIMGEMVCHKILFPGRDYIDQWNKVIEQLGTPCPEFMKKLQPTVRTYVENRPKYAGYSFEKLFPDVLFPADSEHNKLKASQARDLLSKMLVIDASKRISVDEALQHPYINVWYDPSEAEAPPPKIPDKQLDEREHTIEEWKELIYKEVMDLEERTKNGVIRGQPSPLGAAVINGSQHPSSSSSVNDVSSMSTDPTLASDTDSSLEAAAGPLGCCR

[10] = biological target: T2, Epidermal growth factor receptor; assay: Inhibition of EGFR
[11] = biological target: T3, Mitogen-activated protein kinase 8; assay: Inhibition of JNK1

IC50 [1]	IC50 [2]	IC50 [3]	IC50 [4]	IC50 [5]	IC50 [6]	IC50 [7]	inhibition [8]	inhibition [9]	IC50 [10]	IC50 [11]	Compound
> 500 µM	–	–	–	–	–	–	–	–	–	–	CC(=O)N[C@@H](Cc1ccc(OP(=O)(O)O)cc1)C(=O)N[C@@H](CO)c1nc(Cc2ccc(C(F)(F)F)cc2)no1
–	0.047 µM	> 10 µM	> 10 µM	> 10 µM	> 10 µM	> 10 µM	89%	90%	–	–	COc1cc(Nc2nc(NCc3ccc(/C=C/C(=O)O)cc3)n3ccnc3c2C(N)=O)cc(OC)c1
–	0.088 µM	> 10 µM	> 12.5 µM	> 10 µM	> 10 µM	> 10 µM	–	–	> 10 µM	> 10 µM	CCOC(=O)/C=C/c1ccc(CNc2nc(Nc3cc(OC)cc(OC)c3)c(C(N)=O)c3nccn23)cc1
–	0.4 µM	–	> 25 µM	–	–	–	–	–	–	–	COc1cc(Nc2nc(NCc3ccccc3)n3ccnc3c2C(N)=O)cc(OC)c1
